Results taken from patent EP0908457B1, “3-(1,2-benzisothiazol- and isoxazol-5-Y1)-2,4(1H,3H)-pyrimidinedione or thione and 3-(1,2-benzisothiazol- and isoxazol-5-y1)-4(3H)-pyrimidinone or thione herbicidal agents” (BASF AKTIENGESELLSCHAFT, priority 1997, dated 1999).

Key:
[1] = test system: Monochoria vaginalis, Presl.; assay: Preemergence weed control under flooded paddy conditions, MOOVA (Monochoria); type: in vivo; conditions: preemergence, flooded paddy, rated three to four weeks after treatment; further: meaning of each grade not given here
[2] = test system: Monochoria vaginalis, Presl.; assay: Postemergence weed control under flooded paddy conditions, MOOVA (Monochoria); type: in vivo; conditions: rated three to four weeks after treatment
[3] = test system: Oryza sativa, (L.) Tebonnet; assay: Rice tolerance to post-transplant applications under flooded paddy conditions (Example 187), ORYSAT (Rice, Tebonnet); conditions: rated three to four weeks after treatment; further: meaning of each grade not given here
Sagittaria pygmaea, L. [4] = assay: Preemergence weed control under flooded paddy conditions, SAGPY (Arrowhead (Pygmaea)); type: in vivo; conditions: preemergence, flooded paddy, rated three to four weeks after treatment; further: meaning of each grade not given here
[5] = test system: Cyperus serotinus, Rottb.; assay: Preemergence weed control under flooded paddy conditions, CYPSE (Flatsedge); type: in vivo; conditions: preemergence, rated three to four weeks after treatment; further: meaning of each grade not given here
Sagittaria pygmaea, L. [6] = assay: Postemergence weed control under flooded paddy conditions, SAGPY (Arrowhead (Pygmaea)); type: in vivo; conditions: rated three to four weeks after treatment
[7] = test system: Cyperus serotinus, Rottb.; assay: Postemergence weed control under flooded paddy conditions, CYPSE (Flatsedge); type: in vivo; conditions: rated three to four weeks after treatment
[8] = test system: Echinochloa oryzoides (Ard.) Fritsch.; assay: Preemergence weed control under flooded paddy conditions, ECHORC (Watergrass (Calif.)); type: in vivo; conditions: preemergence, flooded paddy, rated three to four weeks after treatment; further: meaning of each grade not given here
Cyperus iria [9] = assay: Postemergence weed control under flooded paddy conditions, CYPIR (Rice Flatsedge); type: in vivo; conditions: rated three to four weeks after treatment
Cyperus iria [10] = assay: Preemergence weed control under flooded paddy conditions, CYPIR (Rice Flatsedge); type: in vivo; conditions: preemergence, flooded paddy, rated three to four weeks after treatment; further: meaning of each grade not given here
[11] = test system: Echinochloa oryzoides (Ard.) Fritsch.; assay: Postemergence weed control under flooded paddy conditions, ECHORC (Watergrass (Calif.)); type: in vivo; conditions: rated three to four weeks after treatment
[12] = test system: Oryza sativa, (L.) Tebonnet; assay: Rice tolerance to post-transplant applications under flooded paddy conditions (Example 188), ORYSAT (Rice, Tebonnet); conditions: rated three to four weeks after treatment

**Q.** `COC(=O)COc1ccc(C)cc1-c1noc2cc(F)c(-n3c(=O)cc(C(F)(F)F)n(C)c3=O)cc12` [Example 359, Acetic acid, {{2-{5-[3,6-dihydro-3-methyl-2,6-dioxo-4-(trifluoromethyl)-1(2H)-pyrimidinyl]-6-fluoro-1,2-benzisoxazol-3-yl}-p-tolyl}oxy}-, methyl ester] was tested. Which “herbicidal effect rating, MOOVA” value ([1]; Rate 0.0320 kg/ha) did it give?
**A.** 8.8

**Q.** What about the “herbicidal effect rating, MOOVA” value ([1]; Rate 0.0620 kg/ha) of the same compound?
**A.** 9.0

**Q.** What about the “herbicidal effect rating, MOOVA” value ([1]; Rate 0.1250 kg/ha) of the same compound?
**A.** 9.0

**Q.** What about the “herbicidal effect rating, MOOVA” value ([1]; Rate 0.2500 kg/ha) of the same compound?
**A.** 9.0

**Q.** And the “herbicidal effect rating, MOOVA” value ([1]; Rate 0.5000 kg/ha)?
**A.** 9.0

**Q.** What about the “herbicidal effect rating, MOOVA” value ([2]; Rate 0.0320 kg/ha) of the same compound?
**A.** 7.0

**Q.** And the “herbicidal effect rating, MOOVA” value ([2]; Rate 0.0620 kg/ha)?
**A.** 7.0

**Q.** What about the “herbicidal effect rating, MOOVA” value ([2]; Rate 0.1250 kg/ha) of the same compound?
**A.** 9.0

**Q.** What about the “herbicidal effect rating ORYSAT” value ([3]; Rate 0.0320 kg/ha) of the same compound?
**A.** 6.5

**Q.** What about the “herbicidal effect rating ORYSAT” value ([3]; Rate 0.0620 kg/ha) of the same compound?
**A.** 7.3

**Q.** And the “herbicidal effect rating ORYSAT” value ([3]; Rate 0.1250 kg/ha)?
**A.** 8.8

**Q.** And the “herbicidal effect rating ORYSAT” value ([3]; Rate 0.2500 kg/ha)?
**A.** 9.0

**Q.** What about the “herbicidal effect rating ORYSAT” value ([3]; Rate 0.5000 kg/ha) of the same compound?
**A.** 9.0

**Q.** What about the “herbicidal effect rating, SAGPY” value (Sagittaria pygmaea, L. [4]; Rate 0.0320 kg/ha) of the same compound?
**A.** 0.0

**Q.** And the “herbicidal effect rating, SAGPY” value (Sagittaria pygmaea, L. [4]; Rate 0.0620 kg/ha)?
**A.** 0.5

**Q.** And the “herbicidal effect rating, SAGPY” value (Sagittaria pygmaea, L. [4]; Rate 0.1250 kg/ha)?
**A.** 1.8

**Q.** And the “herbicidal effect rating, SAGPY” value (Sagittaria pygmaea, L. [4]; Rate 0.2500 kg/ha)?
**A.** 4.5

**Q.** What about the “herbicidal effect rating, SAGPY” value (Sagittaria pygmaea, L. [4]; Rate 0.5000 kg/ha) of the same compound?
**A.** 5.0

**Q.** And the “herbicidal effect rating, CYPSE” value ([5]; Rate 0.0320 kg/ha)?
**A.** 9.0

**Q.** And the “herbicidal effect rating, CYPSE” value ([5]; Rate 0.0620 kg/ha)?
**A.** 6.0

**Q.** And the “herbicidal effect rating, CYPSE” value ([5]; Rate 0.1250 kg/ha)?
**A.** 9.0

**Q.** And the “herbicidal effect rating, CYPSE” value ([5]; Rate 0.2500 kg/ha)?
**A.** 9.0

**Q.** What about the “herbicidal effect rating, SAGPY” value (Sagittaria pygmaea, L. [6]; Rate 0.0320 kg/ha) of the same compound?
**A.** 0.0

**Q.** What about the “herbicidal effect rating, SAGPY” value (Sagittaria pygmaea, L. [6]; Rate 0.0620 kg/ha) of the same compound?
**A.** 0.0

**Q.** And the “herbicidal effect rating, SAGPY” value (Sagittaria pygmaea, L. [6]; Rate 0.1250 kg/ha)?
**A.** 0.0

**Q.** And the “herbicidal effect rating, CYPSE” value ([7]; Rate 0.0320 kg/ha)?
**A.** 0.0

**Q.** And the “herbicidal effect rating, CYPSE” value ([7]; Rate 0.0620 kg/ha)?
**A.** 0.0

**Q.** And the “herbicidal effect rating, CYPSE” value ([7]; Rate 0.1250 kg/ha)?
**A.** 0.0

**Q.** What about the “herbicidal effect rating, ECHORC” value ([8]; Rate 0.0320 kg/ha) of the same compound?
**A.** 8.5

**Q.** And the “herbicidal effect rating, ECHORC” value ([8]; Rate 0.0620 kg/ha)?
**A.** 9.0

**Q.** What about the “herbicidal effect rating, ECHORC” value ([8]; Rate 0.1250 kg/ha) of the same compound?
**A.** 9.0

**Q.** And the “herbicidal effect rating, ECHORC” value ([8]; Rate 0.2500 kg/ha)?
**A.** 9.0

**Q.** What about the “herbicidal effect rating, ECHORC” value ([8]; Rate 0.5000 kg/ha) of the same compound?
**A.** 9.0

**Q.** And the “herbicidal effect rating, CYPIR” value (Cyperus iria [9]; Rate 0.0320 kg/ha)?
**A.** 4.0

**Q.** What about the “herbicidal effect rating, CYPIR” value (Cyperus iria [9]; Rate 0.0620 kg/ha) of the same compound?
**A.** 7.0

**Q.** And the “herbicidal effect rating, CYPIR” value (Cyperus iria [9]; Rate 0.1250 kg/ha)?
**A.** 9.0

**Q.** What about the “herbicidal effect rating, CYPIR” value (Cyperus iria [10]; Rate 0.0320 kg/ha) of the same compound?
**A.** 6.3

**Q.** What about the “herbicidal effect rating, CYPIR” value (Cyperus iria [10]; Rate 0.0620 kg/ha) of the same compound?
**A.** 7.5

**Q.** What about the “herbicidal effect rating, CYPIR” value (Cyperus iria [10]; Rate 0.1250 kg/ha) of the same compound?
**A.** 8.5

**Q.** What about the “herbicidal effect rating, CYPIR” value (Cyperus iria [10]; Rate 0.2500 kg/ha) of the same compound?
**A.** 9.0

**Q.** What about the “herbicidal effect rating, CYPIR” value (Cyperus iria [10]; Rate 0.5000 kg/ha) of the same compound?
**A.** 9.0

**Q.** And the “herbicidal effect rating, ECHORC” value ([11]; Rate 0.0320 kg/ha)?
**A.** 2.0

**Q.** What about the “herbicidal effect rating, ECHORC” value ([11]; Rate 0.0620 kg/ha) of the same compound?
**A.** 6.0

**Q.** What about the “herbicidal effect rating, ECHORC” value ([11]; Rate 0.1250 kg/ha) of the same compound?
**A.** 6.0

**Q.** And the “herbicidal effect rating, ORYSAT (rice tolerance)” value (from here on “herbicidal effect rating, ORYSAT”) ([12]; Rate 0.0320 kg/ha)?
**A.** 2.0

**Q.** What about the “herbicidal effect rating, ORYSAT” value ([12]; Rate 0.0620 kg/ha) of the same compound?
**A.** 3.0

**Q.** And the “herbicidal effect rating, ORYSAT” value ([12]; Rate 0.1250 kg/ha)?
**A.** 4.0
